Experimental data taken from paper PMC6282583 (Chemmedchem, 2018).

Legend:
[1] = target: T1, endothiapepsin (Cryphonectria parasitica, UniProt P11838); experiment: fluorescence-based protease assay adapted from HIV-protease assay; assay type: biochemical
T1 sequence (P11838 90-419): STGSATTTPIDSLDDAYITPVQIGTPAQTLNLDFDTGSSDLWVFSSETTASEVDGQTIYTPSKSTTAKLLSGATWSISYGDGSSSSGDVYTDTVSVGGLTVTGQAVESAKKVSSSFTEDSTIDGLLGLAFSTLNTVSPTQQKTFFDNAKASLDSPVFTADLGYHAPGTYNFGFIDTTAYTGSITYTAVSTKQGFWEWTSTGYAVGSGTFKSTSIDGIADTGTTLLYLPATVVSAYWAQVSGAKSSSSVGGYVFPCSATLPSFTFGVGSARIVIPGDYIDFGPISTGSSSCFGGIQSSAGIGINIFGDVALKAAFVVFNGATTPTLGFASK

[2] = target: T1, endothiapepsin; experiment: as above; assay type: biochemical; remark: listed apart in the source

Row | IC50 [1] | Ki [2] | SMILES
1 | 12.9 ± 0.7 µM | 6.1 ± 0.4 µM | Cc1cc(C)c(CCNC(=O)[C@@H](N)Cc2c[nH]c3ccccc23)c(C)c1 [(S)-2]
2 | 28.7 ± 4.1 µM | 13.5 ± 1.9 µM | Cc1cc(C)c(CCOC(=O)[C@@H](N)Cc2c[nH]c3ccccc23)c(C)c1 [(S)-3]

Row | SMILES | IC50 [1] | Ki [2]
3 | Cc1cc(C)c(Cc2csc([C@@H](N)Cc3c[nH]c4ccccc34)n2)c(C)c1 [(S)-4] | 194 ± 11.4 µM | 91.2 ± 5.4 µM
